A word on the melting point: it is the temperature of the solid-liquid transition. For `Cc1nnc2ccc(-c3cccc(N(C)C(=O)N(C)C)c3)nn12`, the melting point is 159 to 161 °C.
In the case of `N#CC1=C(c2ccccc2)Nc2n[nH]cc2C1c1cccc(F)c1F` (stereo not given) it was 165 °C; in that of `CC(=O)OC1CCCN(C(=O)c2ccc(NC(=O)c3ccccc3C)cc2)c2ccccc21` (stereo not given), 193 to 194 °C; in that of `O=[N+]([O-])c1ccc(Cl)cc1NC1CCCC1`, 75 °C.
In the case of `CCNc1ccc(-n2c(C(F)(F)F)nn(C)c2=S)c(Cl)c1` it was 87 to 90 °C.
`Cc1nc2c(N)nc3ccccc3c2n1CCCOCC#Cc1ccccc1` gave a melting point of 160 to 162 °C.
`CC1(CCCn2cc(C=O)c3ccccc32)OCCO1`: the melting point lay in the range of 52 to 55 °C.
In the case of `FC(F)(F)c1ccc(Cl)cc1CN1CCNc2ncc(I)cc21` it was 189 to 191 °C; in that of `COc1ccc2[nH]c(S(=O)Cc3cc(N)c(Br)cn3)nc2c1` (stereo not given), 130 to 132 °C; in that of `COc1cc2c(cc1C(F)(F)F)N(C(=O)Nc1cncc(-c3cnccc3C)c1)CC2`, 125 to 128 °C.
As for `CCCN(CCC)c1c([N+](=O)[O-])cc(C)c(C)c1[N+](=O)[O-]`, the figure is 42 to 43.5 °C; as for `Cc1csc2[nH]c(=O)n(CCC(C(=O)NO)N(C)S(=O)(=O)c3ccc(Oc4ccccc4)cc3)c(=O)c12` (stereo not given), 142 to 144 °C; as for `CCc1c(C(=O)OC)c(C(=O)OC)c2n1-c1ccccc1C2`, 86 to 88 °C.
In the case of `CC#CCOc1ccc(S(=O)(=O)C2(C(=O)O)CCN(Cc3ccc(Cl)c(Cl)c3)CC2)cc1` it was 213 °C.
Consider `COC(=O)/C=C/c1ccc(NC(=O)CCCBr)nc1`, for which the melting point was 156 to 173 °C.
As for `C=CCn1c(=O)c2nc(-c3ccc(/C=C/C(=O)O)cc3)[nH]c2n(CC=C)c1=O`, the figure is greater than 300 °C.
In the case of `Cc1[nH]c(=O)ccc1-c1cccc(O)c1` it was 285 to 288 °C; in that of `CC(C)=CCN1CCn2c(=O)[nH]c3cc(Cl)cc(c32)C1C` (stereo not given), 139 °C.
With `CCc1[nH]nc2c1C(=O)c1c(NC(=O)NN3CCOCC3)cccc1-2`, the melting point lay within 253 to 254 °C.
As for `Cc1ccc2c(c1C)C(=O)C(=O)N2`, the figure is 225 to 226 °C.
As for `O=C(NC(=O)c1ccc(F)cc1Cl)Nc1ccc(Cl)c(Cl)c1`, the figure is 208 °C; as for `CCS(=O)(=O)N1CCN(c2ccc(NC(=O)c3cc(=O)c4cc(F)cc(N5CCN(C)CC5)c4o3)cc2)CC1`, 233 to 234 °C.
In the case of `O=C(NCc1ccc(Cl)cc1)c1cnc2c(F)cc(-c3nccs3)cc2c1O` it was 296 to 298 °C; in that of `CC(C)(C)c1ccc(C(=O)NNS(=O)(=O)c2ccccc2)cc1`, 197 to 199 °C; in that of `O=C1C2=C(C=CCN2)CCc2ccc(F)cc21`, 78 to 81 °C.
As for `COc1ccc(NS(=O)(=O)c2cc3cc(Br)ccc3oc2=O)cc1`, the melting point lay within 182 to 184 °C.
As for `CC(=O)n1ncc2c(OCc3ccccc3)cccc21`, the figure is 97 °C; as for `O=C(NCCCn1ccnc1)c1ccco1`, 111 to 113 °C.
In the case of `CC(C)(C)n1ncc(S)c(Br)c1=O` it was 107 to 110 °C; in that of `CCC(=CC(CNC(=O)c1cccnc1Cl)=NO)C(C)[N+](=O)[O-]` (stereo not given), 131 to 136 °C.
In the case of `COc1cc(Nc2c(C#N)cnc3cc(-c4csc(CN5CCN(C)CC5)c4)ccc23)c(Cl)cc1Cl` it was 206 to 209 °C.
As to `CCN(CC)C(=O)C(C)(C)Oc1ccc(-c2ccc(N3CCCCC3)cc2)cc1`, the melting point fell in the range of 100 to 102 °C.
As for `CCC1(C)CN(c2c(F)c(N)c3c(=O)c(C(=O)O)cn(C4CC4)c3c2OC)CCC1NC` (stereo not given), the figure is 164 to 166 °C; as for `CCOC(=O)c1cn(-c2cnc3ccccc3c2)cn1`, 170 to 171 °C; as for `CC(C)c1cccc(C(C)C)c1NC(=O)CNC(c1ccccc1)c1ccc(O)cc1` (stereo not given), 190 to 192 °C.

(Values after a melting point compilation (Tetko et al.; mined from patent text by program, amines drawn as free bases though some values may be those of a salt).)
